Data: PubChem BioAssay (NCI)
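Here, GI50 denotes the concentration required for 50% inhibition of growth. TGI is the concentration that stops growth completely.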

Legend:
Test in all cases: inhibition of tumour cell growth, NCI panel, 384-well format
[1] = system: SN12C renal
[2] = system: SNB-19 CNS
[3] = system: 786-0 renal
[4] = system: HL-60(TB) leukemia
[5] = system: ACHN renal
[6] = system: TK-10 renal
[7] = system: UO-31 renal
[8] = system: HT29 colon
[9] = system: CAKI-1 renal
[10] = system: SF-295 CNS
[11] = system: SK-MEL-2 melanoma
[12] = system: MOLT-4 leukemia
[13] = system: EKVX NSCLC
[14] = system: NCI-H226 lung
[15] = system: A549 NSCLC
[16] = system: K-562 leukemia
[17] = system: UACC-257 melanoma
[18] = system: M14 melanoma
[19] = system: BT-549 breast
[20] = system: NCI-H23 lung
[21] = system: PC-3 prostate
[22] = system: NCI-H322M lung
[23] = system: HOP-92 NSCLC
[24] = system: HCT-116 colon
[25] = system: SF-268 CNS
[26] = system: COLO 205 colon
[27] = system: OVCAR-3 ovarian
[28] = system: NCI-H460 NSCLC
[29] = system: HS 578T breast
[30] = system: UACC-62 melanoma
[31] = system: SK-MEL-28 melanoma
[32] = system: A498 renal
[33] = system: DU-145 prostate
[34] = system: SR leukemia
[35] = system: HOP-62 NSCLC
[36] = system: RXF 393 renal
[37] = system: MCF7 breast
[38] = system: MALME-3M melanoma
[39] = system: NCI-H522 lung
[40] = system: SK-MEL-5 melanoma
[41] = system: SNB-75 CNS
[42] = system: IGROV1 ovarian
[43] = system: MDA-MB-231 breast
[44] = system: SF-539 CNS
[45] = system: OVCAR-4 ovarian
[46] = system: MDA-MB-435 melanoma
[47] = system: SK-OV-3 ovarian
[48] = system: SW-620 colon
[49] = system: HCT-15 colon
[50] = system: T-47D breast
[51] = system: KM12 colon
[52] = system: U251 glioblastoma
[53] = system: OVCAR-5 ovarian
[54] = system: MDA-MB-468 breast
[55] = system: OVCAR-8 ovarian

SMILES: COc1cc(F)c(F)c(Nc2ccc(I)cc2F)c1NS(=O)(=O)C1(CC(O)CO)CC1 (stereo not given)
- GI50 [1]: 16.9 µM
- TGI [1]: 35.3 µM
- GI50 [2]: 22.3 µM
- TGI [2]: 62.9 µM
- GI50 [3]: 16.9 µM
- TGI [3]: 31.7 µM
- GI50 [4]: 6.51 µM
- TGI [4]: 19.4 µM
- GI50 [5]: 17.1 µM
- TGI [5]: 33.9 µM
- GI50 [6]: 20.6 µM
- TGI [6]: 53.8 µM
- GI50 [7]: 13.4 µM
- TGI [7]: 32.2 µM
- GI50 [8]: 10.4 µM
- TGI [8]: 22.5 µM
- GI50 [9]: 16 µM
- TGI [9]: 70.1 µM
- GI50 [10]: 16.1 µM
- TGI [10]: 30.4 µM
- GI50 [11]: 12.9 µM
- TGI [11]: 25.6 µM
- GI50 [12]: 14.1 µM
- TGI [12]: 27.1 µM
- GI50 [13]: 19.5 µM
- TGI [13]: 44.4 µM
- GI50 [14]: 14.6 µM
- TGI [14]: 31.9 µM
- GI50 [15]: 20 µM
- TGI [15]: 55 µM
- GI50 [16]: 14.3 µM
- TGI [16]: 27.7 µM
- GI50 [17]: 4.81 µM
- TGI [17]: 18.1 µM
- GI50 [18]: 3.22 µM
- TGI [18]: 12.5 µM
- GI50 [19]: 14.1 µM
- TGI [19]: 27.2 µM
- GI50 [20]: 13.7 µM
- TGI [20]: 32.4 µM
- GI50 [21]: 16.3 µM
- TGI [21]: 30.3 µM
- GI50 [22]: 26 µM
- TGI [22]: 59.3 µM
- GI50 [23]: 14.7 µM
- TGI [23]: 28.6 µM
- GI50 [24]: 14.7 µM
- TGI [24]: 28.7 µM
- GI50 [25]: 19.7 µM
- TGI [25]: 39.5 µM
- GI50 [26]: 6.9 µM
- TGI [26]: 24.1 µM
- GI50 [27]: 13.9 µM
- TGI [27]: 27.1 µM
- GI50 [28]: 16.2 µM
- TGI [28]: 30.3 µM
- GI50 [29]: 14.8 µM
- TGI [29]: 28.1 µM
- GI50 [30]: 3.82 µM
- TGI [30]: 14 µM
- GI50 [31]: 3.18 µM
- TGI [31]: 13.3 µM
- GI50 [32]: 16.1 µM
- TGI [32]: 31 µM
- GI50 [33]: 18.1 µM
- TGI [33]: 37.4 µM
- GI50 [34]: 14.5 µM
- TGI [34]: 27.6 µM
- GI50 [35]: 14.2 µM
- TGI [35]: 29.1 µM
- GI50 [36]: 13.4 µM
- TGI [36]: 26.9 µM
- GI50 [37]: 14.8 µM
- TGI [37]: 30.4 µM
- GI50 [38]: 2.12 µM
- TGI [38]: 6.94 µM
- GI50 [39]: 15.4 µM
- TGI [39]: 29.4 µM
- GI50 [40]: 7.62 µM
- TGI [40]: 20.5 µM
- GI50 [41]: 15 µM
- TGI [41]: 31.4 µM
- GI50 [42]: 14.5 µM
- TGI [42]: 31.5 µM
- GI50 [43]: 13.9 µM
- TGI [43]: 36.3 µM
- GI50 [44]: 15 µM
- TGI [44]: 29.5 µM
- GI50 [45]: 19.8 µM
- TGI [45]: 70 µM
- GI50 [46]: 6.29 µM
- TGI [46]: 20.1 µM
- GI50 [47]: 21.8 µM
- TGI [47]: 56.9 µM
- GI50 [48]: 15.6 µM
- TGI [48]: 41.3 µM
- GI50 [49]: 20.5 µM
- TGI [49]: 48.9 µM
- GI50 [50]: 21.2 µM
- TGI [50]: 81.6 µM
- GI50 [51]: 16.1 µM
- TGI [51]: 30 µM
- GI50 [52]: 16.6 µM
- TGI [52]: 34.3 µM
- GI50 [53]: 18.2 µM
- TGI [53]: 41 µM
- GI50 [54]: 13.8 µM
- TGI [54]: 32.6 µM
- GI50 [55]: 23.1 µM
- TGI [55]: 58.3 µM
